Results published in patent publication US9714231B2, “Pyrrolidine GPR40 modulators” (BRISTOL-MYERS SQUIBB COMPANY, priority 2012, dated 2017).
Structures can show the parent of a compound that is named as a salt. Where two headings read alike, the source gives them in different places.

How the values were obtained:
[1] = target: T1, human GPR40 (Homo sapiens, UniProt O14842); assay: FDSS-based intracellular calcium assay (Human GRP40 in vitro assay); type: cell-based; set-up: 3xFLAG; expressed in transfected cells; settings: cells expressing GPR40, intracellular Ca2+ response, FDSS reader; read-out: hGPR40 EC50
Summary of the method: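 GPR40-expressing cells, plated overnight in serum-free phenol red-free DMEM, loaded with Fluo-3 in HBSS with 1.7 mM probenecid for 30 min at 37° C. Compounds in DMSO, diluted in assay buffer, added as 3× solutions; intracellular Ca^2+ response read on FDSS.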

[2] = target: T1, human GPR40

T1 sequence (O14842 whole entry): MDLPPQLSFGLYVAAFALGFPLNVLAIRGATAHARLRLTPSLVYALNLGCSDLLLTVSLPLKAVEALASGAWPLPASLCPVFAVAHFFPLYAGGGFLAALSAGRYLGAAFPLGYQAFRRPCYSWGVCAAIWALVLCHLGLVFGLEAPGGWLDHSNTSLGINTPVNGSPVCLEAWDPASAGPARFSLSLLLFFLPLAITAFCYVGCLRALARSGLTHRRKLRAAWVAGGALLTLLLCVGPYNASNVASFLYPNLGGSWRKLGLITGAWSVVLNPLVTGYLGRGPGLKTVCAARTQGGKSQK

Row | SMILES | EC50 [1] [µM] | EC50 [2] [µM]
1 | COc1ccc(F)c(N2CCC(Oc3ccc(N4CC(C(F)(F)F)C(C)C4CC(=O)O)cc3)CC2)c1 (single isomer, unassigned) [Example 26, Isomer 1, 2-((2,3-trans,3,4-trans)-1-(4-((1-(2-Fluoro-5-methoxyphenyl)piperidin-4-yl)oxy)phenyl)-3-methyl-4-(trifluoromethyl)pyrrolidin-2-yl)acetic acid, HCl] | 0.22 | 0.14
2 | CCOc1ccc(F)c(N2CCC(Oc3ccc(N4C[C@H](C(F)(F)F)C[C@@H]4CC(=O)O)cc3)C(CC(C)C)C2)c1 (single isomer, unassigned) [Example 35, Isomer 2, HCl] | 0.33 | 0.017
3 | COc1ccc(F)c(N2CCC(Oc3ccc(N4CCCC4CC(=O)O)cc3)CC2)c1 (single isomer, unassigned) [Example 48, Isomer 2, 2-(1-(4-((1-(2-Fluoro-5-methoxyphenyl)piperidin-4-yl)oxy)phenyl)pyrrolidin-2-yl)acetic acid] | 1.4 | 2.5
4 | COc1ccc(F)c(N2CCC(Oc3ccc(N4C[C@H](OC)C[C@@H]4CC(=O)O)cc3)C(C)C2)c1 (single isomer, unassigned) [Example 52, Isomer 2] | 0.6 | 0.14
5 | COc1cc(N2CCC(Oc3ccc(N4C[C@H](C(F)(F)F)C[C@@H]4CC(=O)O)cc3F)C(C)C2)c(Cl)cn1 (stereo partly drawn) [Example 134, 2-((2R,4R)-1-(4-(((3,4-trans)-1-(5-Chloro-2-methoxypyridin-4-yl)-3-methylpiperidin-4-yl)oxy)-3-fluorophenyl)-4-(trifluoromethyl)pyrrolidin-2-yl)acetic acid] | 0.58 | –
6 | COc1cc(N2CCC(Oc3ccc(N4C[C@H](C(F)(F)F)C[C@@H]4CC(=O)O)c(Cl)c3)C(C)C2)c(Cl)cn1 (stereo partly drawn) [Example 135, 2-((2R,4R)-1-(2-Chloro-4-(((3,4-trans)-1-(5-chloro-2-methoxypyridin-4-yl)-3-methylpiperidin-4-yl)oxy)phenyl)-4-(trifluoromethyl)pyrrolidin-2-yl)acetic acid, HCO2H] | 0.4 | –
7 | COc1cc(N2CCC(Oc3ccc(N4C[C@H](C(F)(F)F)C[C@@H]4CC(=O)O)cc3Cl)C(C)C2)c(Cl)cn1 (stereo partly drawn) [Example 136, 2-((2R,4R)-1-(3-Chloro-4-(((3,4-trans)-1-(5-chloro-2-methoxypyridin-4-yl)-3-methylpiperidin-4-yl)oxy)phenyl)-4-(trifluoromethyl)pyrrolidin-2-yl)acetic acid] | 0.5 | –
8 | COc1cc(N2CCC(Oc3ccc(N4C[C@H](OC)C[C@@H]4CC(=O)O)cc3Cl)C(C)C2)c(Cl)cn1 (stereo partly drawn) [Example 137, 2-((2R,4R)-1-(3-Chloro-4-(((3,4-trans)-1-(5-chloro-2-methoxypyridin-4-yl)-3-methylpiperidin-4-yl)oxy)phenyl)-4-methoxypyrrolidin-2-yl)acetic acid, sodium salt] | 0.23 | –
9 | CCOc1ccc(F)c(N2CCC(Oc3ccc(N4C[C@H](C(F)(F)F)C[C@@H]4CC(=O)O)c(F)c3)CC2)c1 [Example 143] | 0.36 | –
10 | COc1cc(N2CCC(Oc3ccc(N4C[C@H](F)[C@@H](C)[C@@H]4CC(=O)O)cc3)C(C)C2)c(Cl)cn1 (stereo partly shown) [Example 145] | 0.026 | –
11 | COc1cc(N2CCC(Oc3ccc(N4C[C@H](F)[C@@H](C)[C@@H]4CC(=O)O)cn3)C(C)C2)c(Cl)cn1 (stereo partly shown) [Example 146] | 0.09 | –
12 | CCCCOc1cc(N2C[C@H](OC)[C@@H](C)[C@@H]2CC(=O)O)cnc1OC1CCN(c2cc(OC)ncc2Cl)CC1C (stereo partly drawn) [Example 160, 2-((2S,3S,4R)-1-(5-Butoxy-6-(((3,4-trans)-1-(5-chloro-2-methoxypyridin-4-yl)-3-methylpiperidin-4-yl)oxy)pyridin-3-yl)-4-methoxy-3-methylpyrrolidin-2-yl)acetic acid] | 0.086 | –

The next lines start with the values.

Row | EC50 [1] [µM] | EC50 [2] [µM] | SMILES
13 | 0.16 | – | COc1cc(N2CCC(Oc3ccc(N4C[C@H](OC)C[C@@H]4CC(=O)O)cn3)C(C)C2)c(C2CCCC2)cn1 (stereo partly drawn) [Example 149, 2-((2R,4R)-1-(6-(((3,4-trans)-1-(5-Cyclopentyl-2-methoxypyridin-4-yl)-3-methylpiperidin-4-yl)oxy)pyridin-3-yl)-4-methoxypyrrolidin-2-yl)acetic acid]
14 | 0.068 | – | COc1cc(N2CCC(Oc3ccc(N4C[C@H](OC)[C@@H](C)[C@@H]4CC(=O)O)cn3)CC2)c(C2=CCCC2(C)C)cn1 [Example 152, 2-((2S,3S,4R)-1-(6-((1-(5-(5,5-Dimethylcyclopent-1-en-1-yl)-2-methoxypyridin-4-yl)piperidin-4-yl)oxy)pyridin-3-yl)-4-methoxy-3-methylpyrrolidin-2-yl)acetic acid, HCl]
15 | 0.2 | – | COc1cc(N2CC[C@@H](Oc3ccc(N4C[C@H](OC)[C@@H](C)[C@@H]4CC(=O)O)cn3)[C@H](C)C2)c(C2=CCCC2(C)C)cn1 [Example 153, 2-((2S,3S,4R)-1-(6-(((3R,4R)-1-(5-(5,5-Dimethylcyclopent-1-en-1-yl)-2-methoxypyridin-4-yl)-3-methylpiperidin-4-yl)oxy)pyridin-3-yl)-4-methoxy-3-methylpyrrolidin-2-yl)acetic acid, HCl]
16 | 0.11 | – | COc1cc(N2CCC(Oc3ccc(N4CC[C@@H](C)[C@@H]4CC(=O)O)cc3)C(C)C2)c(Cl)cn1 (stereo partly drawn) [Example 154, 2-((2S,3R)-1-(4-(((3,4-trans)-1-(5-Chloro-2-methoxypyridin-4-yl)-3-methylpiperidin-4-yl)oxy)phenyl)-3-methylpyrrolidin-2-yl)acetic acid, TFA]
17 | 0.063 | – | COc1cc(N2CCC(Oc3ccc(N4C[C@H](F)[C@@H](C)[C@@H]4CC(=O)O)cc3F)C(C)C2)c(Cl)cn1 (stereo partly drawn) [Example 156, 2-((2S,3S,4R)-1-(4-(((3,4-trans)-1-(5-Chloro-2-methoxypyridin-4-yl)-3-methylpiperidin-4-yl)oxy)-3-fluorophenyl)-4-fluoro-3-methylpyrrolidin-2-yl)acetic acid]
18 | 0.16 | – | CCO[C@H]1CN(c2ccc(OC3CCN(c4cc(OC)ncc4Cl)CC3C)cc2)[C@@H](CC(=O)O)[C@@H]1C (stereo partly drawn) [Example 158, 2-((2S,3S,4R)-1-(4-(((3,4-trans)-1-(5-Chloro-2-methoxypyridin-4-yl)-3-methylpiperidin-4-yl)oxy)phenyl)-4-ethoxy-3-methylpyrrolidin-2-yl)acetic acid, TFA]
19 | 0.085 | – | COc1cc(N2CCC(Oc3ncc(N4C[C@H](OC)[C@@H](C)[C@@H]4CC(=O)O)cc3F)C(C)C2)c(Cl)cn1 (stereo partly drawn) [Example 159, 2-((2S,3S,4R)-1-(6-(((3,4-trans)-1-(5-Chloro-2-methoxypyridin-4-yl)-3-methylpiperidin-4-yl)oxy)-5-fluoropyridin-3-yl)-4-methoxy-3-methylpyrrolidin-2-yl)acetic acid]
20 | 0.063 | – | CCCCCO[C@H]1CN(c2ccc(OC3CCN(c4cc(OC)ncc4Cl)CC3C)cc2)[C@@H](CC(=O)O)[C@@H]1C (stereo partly drawn) [Example 162, 2-((2S,3S,4R)-1-(4-(((3,4-trans)-1-(5-Chloro-2-methoxypyridin-4-yl)-3-methylpiperidin-4-yl)oxy)phenyl)-3-methyl-4-(pentyloxy)pyrrolidin-2-yl)acetic acid, TFA]
21 | 0.11 | – | COc1cc(N2CCC(Oc3ncc(N4C[C@H](F)[C@@H](C)[C@@H]4CC(=O)O)cc3F)C(C)C2)c(Cl)cn1 (stereo partly drawn) [Example 164, 2-((2S,3S,4R)-1-(6-(((3,4-trans)-1-(5-Chloro-2-methoxypyridin-4-yl)-3-methylpiperidin-4-yl)oxy)-5-fluoropyridin-3-yl)-4-fluoro-3-methylpyrrolidin-2-yl)acetic acid]
22 | 0.047 | – | COc1cc(N2CCC(Oc3ncc(N4C[C@H](OC)[C@@H](C)[C@@H]4CC(=O)O)cc3C(F)(F)F)C(C)C2)c(Cl)cn1 (stereo partly drawn) [Example 165, 2-((2S,3S,4R)-1-(6-(((3,4-trans)-1-(5-Chloro-2-methoxypyridin-4-yl)-3-methylpiperidin-4-yl)oxy)-5-(trifluoromethyl)pyridin-3-yl)-4-methoxy-3-methylpyrrolidin-2-yl)acetic acid]
23 | 0.42 | – | COc1cc(N2CCC(Oc3ccc(N4C[C@H](OC)[C@@H](C)[C@@H]4CC(=O)O)nc3)C(C)C2)c(Cl)cn1 (stereo partly drawn) [Example 166, 2-((2S,3S,4R)-1-(5-(((3,4-trans)-1-(5-Chloro-2-methoxypyridin-4-yl)-3-methylpiperidin-4-yl)oxy)pyridin-2-yl)-4-methoxy-3-methylpyrrolidin-2-yl)acetic acid]
24 | 0.045 | – | COc1cc(N2CCC(Oc3ncc(N4C[C@H](OC)[C@@H](C)[C@@H]4CC(=O)O)cc3OC(C)C)C(C)C2)c(Cl)cn1 (stereo partly drawn) [Example 167, 2-((2S,3S,4R)-1-(6-(((3,4-trans)-1-(5-Chloro-2-methoxypyridin-4-yl)-3-methylpiperidin-4-yl)oxy)-5-isopropoxypyridin-3-yl)-4-methoxy-3-methylpyrrolidin-2-yl)acetic acid]
25 | 0.5 | – | COc1cc(N2CCC(Oc3ncc(N4C[C@H](OC)[C@@H](C)[C@H]4CC(=O)O)cc3F)C(C)C2)c(Cl)cn1 (stereo partly drawn) [Example 168, 2-((2R,3S,4R)-1-(6-(((3,4-trans)-1-(5-Chloro-2-methoxypyridin-4-yl)-3-methylpiperidin-4-yl)oxy)-5-fluoropyridin-3-yl)-4-methoxy-3-methylpyrrolidin-2-yl)acetic acid]
26 | 1.7 | – | COc1cc(N2CCC(Oc3cnc(N4C[C@H](OC)[C@@H](C)[C@@H]4CC(=O)O)nc3)C(C)C2)c(Cl)cn1 (stereo partly drawn) [Example 170, 2-((2S,3S,4R)-1-(5-(((3,4-trans)-1-(5-Chloro-2-methoxypyridin-4-yl)-3-methylpiperidin-4-yl)oxy)pyrimidin-2-yl)-4-methoxy-3-methylpyrrolidin-2-yl)acetic acid]
27 | 0.41 | – | COc1cc(N2CCC(Oc3cnc(N4C[C@H](OC)[C@@H](C)[C@@H]4CC(=O)O)c(F)c3)C(C)C2)c(Cl)cn1 (stereo partly drawn) [Example 171, 2-((2S,3S,4R)-1-(5-(((3,4-trans)-1-(5-Chloro-2-methoxypyridin-4-yl)-3-methylpiperidin-4-yl)oxy)-3-fluoropyridin-2-yl)-4-methoxy-3-methylpyrrolidin-2-yl)acetic acid]
